Assays:
human FPR2 = target: T1, human FPR2 (Homo sapiens, UniProt P25090); experiment: FPR2 cyclic adenosine monophosphate (cAMP) assay; type: cell-based; details: CHO cells overexpressing human FPR2; forskolin 5 μM; inhibition of cAMP production; HTRF; read-out: hFPR2 cAMP2 EC50
T1 sequence (P25090 1-351): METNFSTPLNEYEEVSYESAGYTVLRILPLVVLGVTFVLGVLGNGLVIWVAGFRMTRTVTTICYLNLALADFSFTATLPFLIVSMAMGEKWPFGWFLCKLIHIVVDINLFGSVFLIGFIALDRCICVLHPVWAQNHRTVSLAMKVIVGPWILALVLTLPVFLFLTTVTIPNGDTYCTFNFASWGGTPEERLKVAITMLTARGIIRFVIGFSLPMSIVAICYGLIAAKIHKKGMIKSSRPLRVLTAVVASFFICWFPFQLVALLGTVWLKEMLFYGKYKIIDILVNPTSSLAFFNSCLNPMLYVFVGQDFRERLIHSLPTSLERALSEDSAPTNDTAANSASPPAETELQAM
Method in brief: (§1)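 Inhibition of forskolin-stimulated cAMP (final forskolin 5 μM for FPR2, 10 μM for FPR1; IBMX 200 μM) was measured by HTRF in recombinant CHO cells after 30 min at room temperature.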

human FPR1 = target: T2, human FPR1 (Homo sapiens, UniProt P21462); experiment: FPR1 cyclic adenosine monophosphate (cAMP) assay; type: cell-based; details: CHO cells overexpressing human FPR1; forskolin 10 μM; inhibition of cAMP production; HTRF; read-out: hFPR1 cAMP2 EC50
T2 sequence (P21462 1-350): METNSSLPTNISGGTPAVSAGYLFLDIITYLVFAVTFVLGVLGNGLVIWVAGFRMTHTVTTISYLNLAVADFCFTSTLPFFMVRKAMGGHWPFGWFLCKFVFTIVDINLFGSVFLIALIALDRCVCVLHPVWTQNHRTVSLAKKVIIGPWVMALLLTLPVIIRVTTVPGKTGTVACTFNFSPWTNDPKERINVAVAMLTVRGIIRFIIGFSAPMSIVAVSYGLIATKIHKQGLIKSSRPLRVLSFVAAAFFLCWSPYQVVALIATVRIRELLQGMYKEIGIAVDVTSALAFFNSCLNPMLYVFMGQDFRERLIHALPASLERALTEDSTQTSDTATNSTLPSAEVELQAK
Method in brief: as §1

SMILES	EC50 (human FPR2)	EC50 (human FPR1)
COc1cc(F)c(-c2c(NC(=O)c3ccc(OC(F)F)cc3)c(=O)n(-c3nc(N4CCN(C)CC4)ccc3C(F)(F)F)n2C)c(F)c1 [Example 135, N-[5-(2,6-difluoro-4-methoxyphenyl)-1-methyl-2-[6-(4-methylpiperazin-1-yl)-3-(trifluoromethyl)pyridin-2-yl]-3-oxo-2,3-dihydro-1H-pyrazol-4-yl]-4-(difluoromethoxy)benzamide]	3 nM	2400 nM
COc1cc(F)c(-c2c(NC(=O)c3ccc(OC(F)F)cc3)c(=O)n(-c3nc(N(C)C)ccc3C(F)(F)F)n2C)c(F)c1 [Example 136, N-[5-(2,6-difluoro-4-methoxyphenyl)-2-[6-(dimethylamino)-3-(trifluoromethyl)pyridin-2-yl]-1-methyl-3-oxo-2,3-dihydro-1H-pyrazol-4-yl]-4-(difluoromethoxy)benzamide]	3 nM	6800 nM
COc1cc(F)c(-c2c(NC(=O)c3ccc(OC(F)F)cc3)c(=O)n(-c3nc(N4C5CCC4CN(C)C5)ccc3C(F)(F)F)n2C)c(F)c1 [Example 137, N-[5-(2,6-difluoro-4-methoxyphenyl)-1-methyl-2-(6-{3-methyl-3,8-diazabicyclo[3.2.1]octan-8-yl}-3-(trifluoromethyl)pyridin-2-yl)-3-oxo-2,3-dihydro-1H-pyrazol-4-yl]-4-(difluoromethoxy)benzamide]	16 nM	7100 nM
COc1cc(F)c(-c2c(NC(=O)c3ccc(OC(F)F)cc3)c(=O)n(-c3nc(N4CC(C)(O)C4)ccc3C(F)(F)F)n2C)c(F)c1 [Example 138, N-[5-(2,6-difluoro-4-methoxyphenyl)-2-[6-(3-hydroxy-3-methylazetidin-1-yl)-3-(trifluoromethyl)pyridin-2-yl]-1-methyl-3-oxo-2,3-dihydro-1H-pyrazol-4-yl]-4-(difluoromethoxy)benzamide]	4 nM	4800 nM
COc1cc(F)c(-c2c(NC(=O)c3ccc(OC(F)F)cc3)c(=O)n(-c3nc(N(CCO)CCO)ccc3C(F)(F)F)n2C)c(F)c1 [Example 139, N-(2-{6-[bis(2-hydroxyethyl)amino]-3-(trifluoromethyl)pyridin-2-yl}-5-(2,6-difluoro-4-methoxyphenyl)-1-methyl-3-oxo-2,3-dihydro-1H-pyrazol-4-yl)-4-(difluoromethoxy)benzamide]	3 nM	> 10000 nM
COc1cc(F)c(-c2c(NC(=O)c3ccc(OC(F)F)cc3)c(=O)n(-c3nc(N4CC(OC(C)C)C4)ccc3C(F)(F)F)n2C)c(F)c1 [Example 140, N-[5-(2,6-difluoro-4-methoxyphenyl)-1-methyl-3-oxo-2-{6-[3-(propan-2-yloxy)azetidin-1-yl]-3-(trifluoromethyl)pyridin-2-yl}-2,3-dihydro-1H-pyrazol-4-yl]-4-(difluoromethoxy)benzamide]	4 nM	1500 nM
COc1cc(F)c(-c2c(NC(=O)c3ccc(Cl)cc3)c(=O)n(-c3nc(N4CC(OC(C)C)C4)ccc3C(F)(F)F)n2C)c(F)c1 [Example 141, 4-chloro-N-[5-(2,6-difluoro-4-methoxyphenyl)-1-methyl-3-oxo-2-{6-[3-(propan-2-yloxy)azetidin-1-yl]-3-(trifluoromethyl)pyridin-2-yl}-2,3-dihydro-1H-pyrazol-4-yl]benzamide]	7 nM	3300 nM
COc1cc(F)c(-c2c(NC(=O)c3ccc(OC(F)F)cc3)c(=O)n(-c3ncccc3N(C)C)n2C)c(F)c1 [Example 142, N-[5-(2,6-difluoro-4-methoxyphenyl)-2-[3-(dimethylamino)pyridin-2-yl]-1-methyl-3-oxo-2,3-dihydro-1H-pyrazol-4-yl]-4-(difluoromethoxy)benzamide]	17 nM	3100 nM
COc1cc(F)c(-c2c(NC(=O)c3ccc(OC(F)F)cc3)c(=O)n(-c3nc(N4CCN(C)CC4)ccc3Cl)n2C)c(F)c1 [Example 143, N-{2-[3-chloro-6-(4-methylpiperazin-1-yl)pyridin-2-yl]-5-(2,6-difluoro-4-methoxyphenyl)-1-methyl-3-oxo-2,3-dihydro-1H-pyrazol-4-yl}-4-(difluoromethoxy)benzamide]	10 nM	3700 nM
COc1cc(F)c(-c2c(NC(=O)c3ccc(OC(F)F)cc3)c(=O)n(-c3nc(Cl)ccc3N3CC4(COC4)C3)n2C)c(F)c1 [Example 144, N-[2-(6-chloro-3-{2-oxa-6-azaspiro[3.3]heptan-6-yl}pyridin-2-yl)-5-(2,6-difluoro-4-methoxyphenyl)-1-methyl-3-oxo-2,3-dihydro-1H-pyrazol-4-yl]-4-(difluoromethoxy)benzamide]	22 nM	> 10000 nM
COc1cc(F)c(-c2c(NC(=O)c3ccc(OC(F)F)cc3)c(=O)n(-c3nc(N4CC(F)(F)C4)ccc3Cl)n2C)c(F)c1 [Example 145, N-{2-[3-chloro-6-(3,3-difluoroazatidin-1-yl)pyridin-4-methoxyphenyl)-1-methyl-3-oxo-2,3-dihydro-1H-pyrazol-4-yl}-4-(difluoromethoxy)benzamide]	3 nM	2900 nM
COc1cc(F)c(-c2c(NC(=O)c3ccc(OC(F)F)cc3)c(=O)n(-c3nc(Cl)ccc3F)n2C)c(F)c1 [Example 146, N-[2-(6-chloro-3-fluoropyridin-2-yl)-5-(2,6-difluoro-4-methoxyphenyl)-1-methyl-3-oxo-2,3-dihydro-1H-pyrazol-4-yl]-4-(difluoromethoxy)benzamide]	6 nM	> 10000 nM
COc1cc(F)c(-c2c(NC(=O)c3ccc(OC(F)F)cc3)c(=O)n(-c3nc(N(C)C)ccc3Cl)n2C)c(F)c1 [Example 147, N-{2-[3-chloro-6-(dimethylamino)pyridin-2-yl]-5-(2,6-difluoro-4-methoxyphenyl)-1-methyl-3-oxo-2,3-dihydro-1H-pyrazol-4-yl}-4-(difluoromethoxy)benzamide]	3 nM	730 nM
COc1cc(F)c(-c2c(NC(=O)c3ccc(OC(F)F)cc3)c(=O)n(-c3cc(F)cc(C(C)(C)O)c3)n2C)c(F)c1 [Example 148, N-[5-(2,6-difluoro-4-methoxyphenyl)-2-[3-fluoro-5-(2-hydroxypropan-2-yl)phenyl]-1-methyl-3-oxo-2,3-dihydro-1H-pyrazol-4-yl]-4-(difluoromethoxy)benzamide]	4 nM	1500 nM
COc1cc(F)c(-c2c(NC(=O)c3ccc(OC(F)F)cc3)c(=O)n(-c3cc(Cl)cc(N4C[C@H]5C[C@@H]4CN5)c3)n2C)c(F)c1 [Example 149, N-(2-{3-chloro-5-[(1R,4R)-2,5-diazabicyclo[2.2.1]heptan-2-yl]phenyl}-5-(2,6-difluoro-4-methoxyphenyl)-1-methyl-3-oxo-2,3-dihydro-1H-pyrazol-4-yl)-4-(difluoromethoxy)benzamide]	6 nM	4700 nM
COc1cc(F)c(-c2c(NC(=O)c3ccc(OC(F)F)cc3)c(=O)n(-c3cccc(N4CCCCC4=O)n3)n2C)c(F)c1 [Example 150, N-[5-(2,6-difluoro-4-methoxyphenyl)-1-methyl-3-oxo-2-[6-(2-oxopiperidin-1-yl)pyridin-2-yl]-2,3-dihydro-1H-pyrazol-4-yl]-4-(difluoromethoxy)benzamide]	13 nM	1500 nM
COc1cc(F)c(-c2c(NC(=O)c3ccc(OC(F)(F)F)cc3)c(=O)n(-c3cc(C)ccn3)n2C)c(F)c1 [Example 151, N-[5-(2,6-difluoro-4-methoxyphenyl)-1-methyl-2-(4-methylpyridin-2-yl)-3-oxo-2,3-dihydro-1H-pyrazol-4-yl]-4-(trifluoromethoxy)benzamide]	13 nM	2700 nM
COc1cc(F)c(-c2c(NC(=O)c3ccc(OC(F)F)cc3)c(=O)n(-c3cc(Cl)ccn3)n2C)c(F)c1 [Example 152, N-[2-(4-chloropyridin-2-yl)-5-(2,6-difluoro-4-methoxyphenyl)-1-methyl-3-oxo-2,3-dihydro-1H-pyrazol-4-yl]-4-(difluoromethoxy)benzamide]	10 nM	> 10000 nM
COc1cc(F)c(-c2c(NC(=O)c3ccc(OC(F)(F)F)cc3)c(=O)n(-c3cc(Cl)ccn3)n2C)c(F)c1 [Example 153, N-[2-(4-chloropyridin-2-yl)-5-(2,6-difluoro-4-methoxyphenyl)-1-methyl-3-oxo-2,3-dihydro-1H-pyrazol-4-yl]-4-(trifluoromethoxy)benzamide]	5 nM	4200 nM
COc1cc(F)c(-c2c(NC(=O)c3ccc(OC(F)(F)F)cc3)c(=O)n(-c3ncccc3C(F)(F)F)n2C)c(F)c1 [Example 154, N-[5-(2,6-difluoro-4-methoxyphenyl)-1-methyl-3-oxo-2-[3-(trifluoromethyl)pyridin-2-yl]-2,3-dihydro-1H-pyrazol-4-yl]-4-(trifluoromethoxy)benzamide]	4 nM	> 10000 nM

— US12577206B2 (BRISTOL-MYERS SQUIBB COMPANY, priority 2020, dated 2026)
